The record followed here is US11292786B2, “Pyrimidine compounds and pharmaceutical compositions for preventing or treating cancers including the same” (HANMI PHARM. CO., LTD., priority 2018, dated 2022).

The nature of data set [1]: Microsomal stability, mice microsomes. In kind it is in vitro ADME. Particulars: residual amount % after 1 hour at 37° C., 5 μM, NADPH regenerating system.
The nature of data set [2]: Microsomal stability, human liver microsomes. The following applies: residual amount % after 1 hour at 37° C., 5 μM, 1 mg/ml human liver microsomes, NADPH regenerating system. Format: in vitro ADME. The protocol: To confirm the reactivity of the test substances with intra-hepatic CYP450 enzymes, 5 μM test substances and 1 mg/ml human liver microsomes were incubated for 1 hour at a temperature of 37° C. in the presence of an NADPH regenerating system. After 1 hour, acetonitrile was added to terminate the reaction, and the supernatant obtained by centrifugation was analyzed by HPLC. The remaining amount % was calculated using the following equation using the value of the reacted sample for 1 hour relative to the value of the 0-minute sample as the peak value obtained as an analysis result. (Peak value of the sample reacted for 1 hour/peak value of the sample at 0 minutes)×100=residual amount %.

On to `CCN(CC)C1CCN(c2cc(Nc3ncc(Cl)c(-c4c[nH]c5cc(C)ccc45)n3)cc(C3CC3)c2)CC1` [Control Compound 6], for which the “Mice microsomal stability (%)” value in data set [1] is 29%. Moreover, the “Human microsomal stability (%)” value in data set [2] amounted to 49%.

With `Cc1ccc2c(-c3nc(Nc4cc(CN5C[C@@H](C)NC6(CC6)C5)cc(C5CC5)c4)ncc3Cl)c[nH]c2c1` [Example 27, (R)-5-chloro-N-(3-cyclopropyl-5-((5-methyl-4,7-diazaspiro[2.5]octan-7-yl)methyl)phenyl)-4-(6-methyl-1H-indole-3-yl)pyrimidine-2-amine], the “Mice microsomal stability (%)” value in data set [1] turned out to be 69%. Besides, the “Human microsomal stability (%)” value in data set [2] was 72%.
